Four cell lines from the supplement of paper PMC10307832 can be followed below.

Common to all, as to test: relative viability (nuclei count vs DMSO), 5 days (fraction); higher = more cells survive
Compound in assay [1]: COC1=CC=C(C=C1)CN2C=CC3=C2C=C(C=C3)C(=O)NO + O=C(CCCCCCC(=O)Nc1ccccc1)NO [Vorinostat] (partner 1 µM)
Put shortly:
(§1)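 Relative viability divides the nuclei count in treated wells by that in vehicle wells. Lung cancer cell lines were seeded in 1536-well plates, dosed by pin tool the next day, and fixed and stained after 5 days in one step with final 0.05% Triton X-100, 1% formaldehyde and 1 ug/ml Hoechst. Dosing was a single drug or a fixed anchor-drug dose plus five library-drug doses (not always all listed) in √10 steps, and values are medians of duplicate plates imaged at 4×.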

Compound in assay [2]: C[C@]1(c2nc3c(C(N)=O)cccc3[nH]2)CCCN1 [Veliparib] + Cc1nc(Nc2ncc(C(=O)Nc3c(C)cccc3Cl)s2)cc(N2CCN(CCO)CC2)n1 [Dasatinib] (partner 0.075 µM)
Put shortly:
as §1

Compound in assay [3]: C[C@]1(c2nc3c(C(N)=O)cccc3[nH]2)CCCN1 [Veliparib] + Nc1ncn([C@H]2C[C@H](O)[C@@H](CO)O2)c(=O)n1 [Decitabine] (partner 2 µM)
Put shortly:
as §1

Compound in assay [4]: C[C@]1(c2nc3c(C(N)=O)cccc3[nH]2)CCCN1 [Veliparib] + O=C(CCCCCCC(=O)Nc1ccccc1)NO [Vorinostat] (partner 1 µM)
Summed up: as §1

On to NCI-H1793, for which the relative viability in assay [1] (first compound 0.253 µM) stood at 0.832; in assay [1] (first compound 0.8 µM) it was 0.801; in assay [1] (first compound 2.53 µM) it was 0.816; in assay [1] (first compound 8 µM) it was 0.759; in assay [2] (first compound 0.02 µM), 0.398; in assay [2] (first compound 0.06325 µM), 0.448. For the same cell line, the relative viability in assay [2] (first compound 0.2 µM) was 0.408; in assay [2] (first compound 0.6325 µM) it was 0.277; in assay [2] (first compound 2 µM), 0.448; in assay [3] (first compound 0.02 µM), 0.511; in assay [3] (first compound 0.06325 µM), 0.47; in assay [3] (first compound 0.2 µM) it was 0.445. For the same cell line, the relative viability in assay [3] (first compound 0.6325 µM) was 0.429; in assay [3] (first compound 2 µM), 0.424; in assay [4] (first compound 0.02 µM), 0.654; in assay [4] (first compound 0.06325 µM), 0.697; in assay [4] (first compound 0.2 µM) it was 0.58; in assay [4] (first compound 0.6325 µM), 0.807. The relative viability in assay [4] (first compound 2 µM) worked out at 0.722.
Regarding NCI-H1944, the relative viability in assay [1] (first compound 0.253 µM) amounted to 0.677; in assay [1] (first compound 0.8 µM) it was 0.577; in assay [1] (first compound 2.53 µM), 0.603; in assay [1] (first compound 8 µM), 0.399; in assay [2] (first compound 0.02 µM) it was 0.204; in assay [2] (first compound 0.06325 µM) it was 0.196. Further, the relative viability in assay [2] (first compound 0.2 µM) came out at 0.21; in assay [2] (first compound 0.6325 µM) it was 0.195; in assay [2] (first compound 2 µM) it was 0.219; in assay [3] (first compound 0.02 µM), 0.408; in assay [3] (first compound 0.06325 µM), 0.398; in assay [3] (first compound 0.2 µM), 0.353. Moreover, the relative viability in assay [3] (first compound 0.6325 µM) worked out at 0.41; in assay [3] (first compound 2 µM), 0.407; in assay [4] (first compound 0.02 µM), 0.491; in assay [4] (first compound 0.06325 µM) it was 0.498; in assay [4] (first compound 0.2 µM) it was 0.388; in assay [4] (first compound 0.6325 µM) it was 0.44. Further, in assay [4] (first compound 2 µM), the relative viability worked out at 0.459.
On to NCI-H1734, for which the relative viability in assay [1] (first compound 0.253 µM) amounted to 0.882; in assay [1] (first compound 0.8 µM) it was 0.779; in assay [1] (first compound 2.53 µM) it was 0.731; in assay [1] (first compound 8 µM), 0.658; in assay [2] (first compound 0.02 µM), 0.523; in assay [2] (first compound 0.06325 µM) it was 0.473. Besides, the relative viability is 0.569 in assay [2] (first compound 0.2 µM); 0.443 in assay [2] (first compound 0.6325 µM); 0.505 in assay [2] (first compound 2 µM); 0.374 in assay [3] (first compound 0.06325 µM); 0.389 in assay [3] (first compound 0.2 µM); 0.33 in assay [3] (first compound 0.6325 µM). Also, the relative viability amounted to 0.35 in assay [3] (first compound 2 µM); 0.772 in assay [4] (first compound 0.06325 µM); 0.796 in assay [4] (first compound 0.2 µM); 0.785 in assay [4] (first compound 0.6325 µM); 0.788 in assay [4] (first compound 2 µM).
For the cell line H3255, the relative viability in assay [1] (first compound 0.08 µM) amounted to 0.34; in assay [1] (first compound 0.253 µM), 0.739; in assay [1] (first compound 0.8 µM), 0.842; in assay [1] (first compound 2.53 µM), 0.849; in assay [1] (first compound 8 µM), 0.731; in assay [2] (first compound 0.02 µM), 0.303. Further, the relative viability came to 0.344 in assay [2] (first compound 0.06325 µM); 0.253 in assay [2] (first compound 0.2 µM); 0.402 in assay [2] (first compound 0.6325 µM); 0.32 in assay [2] (first compound 2 µM); 0.615 in assay [3] (first compound 0.02 µM); 0.538 in assay [3] (first compound 0.06325 µM). Besides, the relative viability in assay [3] (first compound 0.2 µM) is 0.713; in assay [3] (first compound 0.6325 µM) it was 0.567; in assay [3] (first compound 2 µM) it was 0.589; in assay [4] (first compound 0.02 µM), 0.707; in assay [4] (first compound 0.06325 µM), 0.768; in assay [4] (first compound 0.2 µM), 0.793. Also, the results for the relative viability in assay [4] (first compound 0.6325 µM) and in assay [4] (first compound 2 µM) were 0.799 and 0.936, respectively.
